Laboratory results published in patent US11596614B2, “Treatment of intrahepatic cholestatic diseases” (CymaBay Therapeutics, Inc., priority 2014, dated 2023).
Blank lines part the entries; values can stand above or below the molecule they belong to.

Experiments:
[1] = system: subjects with mixed dyslipidemia; conditions: cited from earlier work
[2] = gradient-gel electrophoresis, cited from earlier work
PPARa = target: T1, PPARa (Homo sapiens, UniProt Q07869); test: Specificity for PPARδ compared with PPARa; assay type: biochemical
T1 sequence (Q07869 1-468): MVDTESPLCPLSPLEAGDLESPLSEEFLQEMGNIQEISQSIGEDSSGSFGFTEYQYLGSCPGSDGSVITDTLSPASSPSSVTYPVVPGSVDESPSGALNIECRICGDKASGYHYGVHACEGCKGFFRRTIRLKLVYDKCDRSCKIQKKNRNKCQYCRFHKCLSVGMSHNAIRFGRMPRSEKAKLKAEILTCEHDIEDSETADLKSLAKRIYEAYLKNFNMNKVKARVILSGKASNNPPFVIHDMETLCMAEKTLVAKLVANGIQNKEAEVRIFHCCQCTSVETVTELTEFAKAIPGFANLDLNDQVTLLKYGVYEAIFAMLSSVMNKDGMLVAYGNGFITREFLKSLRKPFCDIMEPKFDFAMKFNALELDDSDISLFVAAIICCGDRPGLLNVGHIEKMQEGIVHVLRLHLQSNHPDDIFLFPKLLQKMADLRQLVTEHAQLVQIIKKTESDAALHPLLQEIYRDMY
From the text: It is specific (>600-fold and >2500-fold compared with PPARa and peroxisome proliferator-activated receptor-γ receptors). PPARδ activation stimulates fatty acid oxidation and utilization, improves plasma lipid and lipoprotein metabolism, glucose utilization, and mitochondrial respiration, and preserves stem cell homeostasis.

[3] = system: subjects with an intrahepatic cholestatic disease such as PBC; test: Example 2: treatment of adult subjects with an intrahepatic cholestatic disease such as PBC; assay type: in vivo, human; conditions: 5, 10, 25, or 50 mg/day orally
Protocol: Subjects are permitted their usual other medications, including UDCA. […] At each visit, after a 12-hour fast, blood is drawn and urine collected; and a standard metabolic panel, complete blood count, and standard urinalysis are performed. Blood is analyzed for TC, HDL-C, TG, VLDL-C, LDL-C, and apolipoprotein B, for liver function markers such as total and bone-specific alkaline phosphatases, for γ-glutamyl transpeptidase, and also for total and conjugated bilirubin. The subjects also maintain health diaries, which are reviewed at each visit.

[4] = Preclinical elimination study; assay type: in vivo
subjects with PBC = test: Example 1: trial in subjects with PBC on UDCA; assay type: in vivo, human; conditions: on treatment, 50 or 200 mg/day
From the text: The trial subjects were adult, male or female, with a diagnosis of PBC by at least two of the following three criteria: (a) a history of alkaline phosphatase (ALP) above the upper limit of normal (ULN) for at least six months, (b) positive anti-mitochondrial antibody titers> 1/40 on immunofluorescence or M2 positive by enzyme linked immunosorbent assay or positive PBC-specific antinuclear antibodies, and (c) documented liver biopsy result consistent with PBC, on a stable and recommended dose of UDCA for the past twelve months, and ALP≥1.67×ULN. Exclusion criteria included AST or ALT≥3×ULN, total bilirubin (TBIL)≥2×ULN, autoimmune hepatitis or a history of chronic viral hepatitis, PSC, the current use of fibrates or simvastatin, the use of colchicine, methotrexate, azathioprine, or systemic steroids in the previous two months, the use of an experimental treatment for PBC, and the use of an experimental or unapproved immunosuppressant. The primary study endpoint was decrease in ALP, and the secondary endpoint was the responder rate for subjects achieving ALP<1.67×ULN and total bilirubin within normal limit, and >15% decrease in ALP. […] According to the original statistical plan, changes in ALP were calculated using the last observation carried forward. […]

[5] = once daily oral, 8 weeks, seladelpar 50 or 100 mg, ATV 20 mg

SMILES: CC(C)c1c(C(=O)Nc2ccccc2)c(-c2ccccc2)c(-c2ccc(F)cc2)n1CC[C@@H](O)C[C@@H](O)CC(=O)O [ATV, atorvastatin, reference compound]
- decrease of large LDL particles ([1]; once daily oral, 8 weeks, ATV 20 mg): 30%
- decrease of small/very small LDL particles [1, 5]: 25%

- specificity for PPARδ compared with PPARa (PPARa): > 600 fold
- distribution of drug in bile [4]: concentrated in bile
SMILES: CCO[C@H](COc1ccc(C(F)(F)F)cc1)CSc1ccc(OCC(=O)O)c(C)c1 [Seladelpar, (R)-2-(4-((2-ethoxy-3-(4-(trifluoromethyl)phenoxy)propyl)thio)-2-methylphenoxy)acetic acid]
- conversion of LDL particle size pattern B (predominant LDL particle size less than 25.75 nm) [2]: to pattern I or A
- conversion of LDL particle size pattern I (predominant LDL particle size 25.75 nm to 26.34 nm) ([2]; pattern A = predominant LDL particle size greater than 26.34 nm): to pattern A
- improvement in disease (ALP and GGT) [3]: a decrease in ALP and GGT
- adverse events of pruritus (subjects with PBC): no adverse events of pruritus were reported
- safety and tolerability ([1]; 50 or 100 mg once daily oral, 8 weeks): safe and generally well-tolerated
- reduction of high-sensitivity C-reactive protein ([1]; compared to placebo, seladelpar 50 or 100 mg once daily oral alone and in combination with ATV 20 mg, 8 weeks, P<0.05): 43-72%
- raise of HDL-C ([1]; compared to placebo, seladelpar 50 or 100 mg once daily oral alone and in combination with ATV 20 mg, 8 weeks): 1-12%
- reduction of the percentage of subjects meeting the criteria for metabolic syndrome ([1]; mixed dyslipidemia): > 2 fold
- decrease of small/very small LDL particles [1, 5]: 40-48%
- increase of large LDL particles ([1]; once daily oral, 8 weeks, seladelpar 50 or 100 mg): 34-44%
